The test relates to male broilers subjected to chronic cyclic heat stress. As to the kind of experiment: Body weight and rectal temperature of birds sampled at d-23, d-25 and d-39. The test is classed as in vivo, broiler chickens (Ross 308). The protocol: Sampling of one bird per pen (with weight close to average weight of the pen) on d-23, d-25 and on d-39 (on d-25 and d-39, sampling starts after >3 h of heat stress that day; 108 birds in total) • malondialdehyde, HSP70 (Chicken Heat Shock Protein 70, Hsp-70 ELISA Kit) Cusabio Code CSB-E11196Ch), HSP90 (Chicken Heat Shock Protein 90, HSP-90 ELISA Kit; Cusabio Code CSB-E12873C), GPx, SOD in plasma; GSH/GSSG in erythrocytes; and T3, T4 and nitric oxide in serum • Breast muscle and liver: malondialdehyde, AOX (GPx, SOD), GSH/GSSG
For physiological measurements, time of sampling (representing the number of minutes between the beginning of heat stress and the precise moment of sampling of the bird that day), if appropriate, was included in the model as a covariable if significant as well. Orthogonal contrasts were applied to test for linear and quadratic effects upon incremental levels of DMS supplementation in the diet. Means are given as estimated marginal means (least square means). Means were separated using the Tukey post-hoc test. Differences were considered significant when p<0.05 and as a trend for significance when p<0.1.
At d-23, d-25 and d39, one bird per pen (with weight close to average weight of the pen) was sampled. On d-25 and d-39, sampling started after >3 h of heat stress that day. Thus, in total 108 birds were sampled, and various endpoints were determined in several tissues. To recall, finisher period started on d-21, while the heat stress protocol was implemented from d-24 onwards. It means that d-23 was the last day prior to heat stress and d-25 the second day whereby birds were subjected to high temperatures. Body weights on d-23 and d-25 (Table 7) were naturally higher than those reported on d-21 (Table 3), but not affected by treatment. Body weights at d-39 for sampled birds are very close to body weights for d-39 shown in Table 3, which confirms that birds with weight close to average weight of the pen were selected. Again, this was not affected by supplementation with DMS. Rectal temperature of sampled birds on d-23 represents values for thermo-neutral conditions, and thus ranged between 41.1 and 41.3° C. without treatment differences (FIG. 15). However, on d-25 rectal temperatures were largely elevated and obviously affected by diet (P<0.05). […] Nonetheless, observations are in line with findings on d-38 (Table 4).

The mark [1] stands for this setting: 0.2% DMS in diet (T3), sampled birds d-25.

Marks after values point to notes of the source that are not given here.

Take `CS(C)(=O)=O` [DMS, dimethyl sulfone]: the Body weight was 1361 g (0.1% DMS in diet (T2), sampled birds d-23); 1544 g (0.1% DMS in diet (T2), sampled birds d-25); 3097 g (0.1% DMS in diet (T2), sampled birds d-39); 1352 g (0.2% DMS in diet (T3), sampled birds d-23); 1536 g under setting [1]; 3068 g (0.2% DMS in diet (T3), sampled birds d-39). Further, the Rectal temperature reads like this: (0.1% DMS in diet (T2), sampled birds d-23 (prior to heat stress)) 41.3 °C; (0.1% DMS in diet (T2), sampled birds d-25, during heat stress) 42.5^b ° C; (0.1% DMS in diet (T2), sampled birds d-39, during heat stress) 42.6 °C; (0.2% DMS in diet (T3), sampled birds d-23 (prior to heat stress)) 41.1 °C; (0.2% DMS in diet (T3), sampled birds d-25, during heat stress) 42.3^b ° C; (0.2% DMS in diet (T3), sampled birds d-39, during heat stress) 42.3 °C. Moreover, the “Rectal temperature lower than control” value under setting [1] was found to be 0.5 °C.
